Measured values published in article PMC11676098, “New Benzofuran–Pyrazole-Based Compounds as Promising Antimicrobial Agents: Design, Synthesis, DNA Gyrase B Inhibition, and In Silico Studies” (Pharmaceuticals, 2024).

Target: T1, E. coli DNA gyrase B (Escherichia coli, UniProt P0AES6)
T1 construct: gene gyrB
Assay: in vitro E. coli DNA gyrase enzyme inhibition assay (manufacturer's protocol)
Format: biochemical

Structure (SMILES) | IC50 [µM]
N#Cc1c(-c2cn(-c3ccccc3)nc2-c2cc3ccccc3o2)c(C#N)c(=O)n2c1NCCN2 [compound 9, 8-(3-(Benzofuran-2-yl)-1-phenyl-1H-pyrazol-4-yl)-6-oxo-1,3,4,6-tetrahydro-2H-pyrido[1,2-b][1,2,4]triazine-7,9-dicarbonitrile] | 9.8 ± 0.21
CC(=O)n1c(C)nc2c(C#N)c(-c3cn(-c4ccccc4)nc3-c3cc4ccccc4o3)c(C#N)c(=O)n21 [compound 10, 3-Acetyl-7-(3-(benzofuran-2-yl)-1-phenyl-1H-pyrazol-4-yl)-3,5-dihydro-2-methyl-5-oxo-[1,2,4]triazolo[1,5-a]pyridine-6,8-dicarbonitrile] | 32.2 ± 0.1
